Numbers after ± are expanded uncertainties.
Conditions: 298.15 K; 101.33 kPa; Liquid; Vibrating tube method

Row | mass density [kg/m3] | SMILES
1 | 837.31 ± 0.31 | C=C(C)[C@H]1CC=C(C)CC1 [(R)-1-methyl-4-(1-methylethenyl)cyclohexene]
2 | 785.24 ± 0.19 | CCO [ethanol]
3 | 786.62 ± 0.17 | CO [methanol]
